According to patent publication US9670231B2, “Fused tricyclic amide compounds as multiple kinase inhibitors” (BEIGENE, LTD., priority 2013, dated 2017):

Tests used:
Format in all cases: biochemical
B-Raf (V600E) = B-Raf (V600E) (Homo sapiens (Human), UniProt P15056, V600E); experiment: Raf IC50 assay, TR-FRET, B-Raf (V600E); conditions: 0.1 mM ATP; read-out: IC50 BRAF-V600E
Description: The enzyme was incubated with the compounds disclosed herein at room temperature for 60 minutes and the reactions were initiated by the addition of ATP and GST-MEK1. After reaction at room temperature for 60 minutes, an equal volume of stop/detection solution was added according to the manufacture's instruction (CisBio Bioassays). […] The IC50 for each compound was derived from fitting the dose-response % inhibition data to the four-parameter logistic model by Graphpad Prism software.

WT EGFR kinase domain = WT EGFR kinase domain (Homo sapiens (Human), UniProt P00533); experiment: EGFR enzymatic assay, TR-FRET, WT EGFR
Chain of WT EGFR kinase domain (P00533 669-1210): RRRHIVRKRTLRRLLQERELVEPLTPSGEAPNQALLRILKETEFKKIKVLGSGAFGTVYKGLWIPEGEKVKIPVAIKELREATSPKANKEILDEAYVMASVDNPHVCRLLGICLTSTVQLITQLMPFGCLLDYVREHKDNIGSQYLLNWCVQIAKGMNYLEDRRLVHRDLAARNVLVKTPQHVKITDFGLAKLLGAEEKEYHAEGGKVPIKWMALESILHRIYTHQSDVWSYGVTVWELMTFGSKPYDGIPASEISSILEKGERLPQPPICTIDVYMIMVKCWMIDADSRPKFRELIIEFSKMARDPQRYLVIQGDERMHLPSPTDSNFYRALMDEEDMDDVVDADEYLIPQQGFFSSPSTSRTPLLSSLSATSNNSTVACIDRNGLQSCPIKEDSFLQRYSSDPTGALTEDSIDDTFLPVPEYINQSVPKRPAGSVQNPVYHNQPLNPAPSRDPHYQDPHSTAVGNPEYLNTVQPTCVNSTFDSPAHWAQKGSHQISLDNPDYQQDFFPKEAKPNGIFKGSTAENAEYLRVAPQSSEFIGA
Description: (§1) Compounds disclosed herein were tested against WT EGFR kinase domain (aa.669-1210, Carna Biosciences, 08-115), EGFR T790M/L858R kinase domain (aa.669-1210, Carna Biosciences, 08-510) and EGFR L858R kinase domain (aa.669-1210, Carna Biosciences, 08-502) in assays based on time-resolved fluorescence-resonance energy transfer methodology. The assay was carried out in 384-well low volume black plate in a reaction mixture containing EGFR kinases, 20 LM for EGFR WT and T790M/L858R, and 125 LM for EGFR L858R), biotin-TK substrate and 0-5 LM compounds in buffer containing 50 mM HEPES pH7.5, 10 mM MgCl2, 1 mM EGTA, 0.01% Brij-35, 2.5 mM DTT, 0.1% BSA. The kinase was incubated with the compounds disclosed herein at room temperature for 120 minutes and the reaction was initiated by the addition of ATP and biotin-TK substrate. After reaction at room temperature for 30 minutes, an equal volume of stop/detection solution was added according to the manufacture's instruction (CisBio Bioassays). The stop/detection solution contained TK-Antibody-Cryptate and Streptavidin-XL665 in buffer containing 25 mM Tris pH7.4, 400 mM KF, 50 mM EDTA, 0.01% BSA, 0.01% Triton X-100. Plates were sealed and incubated at room temperature for 1 hour, and the TR-FRET signals were read on BMG PHERAstar FS instrument. The IC50 of an inhibitor was derived from fitting the % inhibition data at each compound concentration to the four-parameter logistic equation by Graphpad Prism software.

EGFR L858R kinase domain = EGFR L858R kinase domain (Homo sapiens (Human), UniProt P00533, L858R); experiment: EGFR enzymatic assay, TR-FRET, EGFR L858R
Chain of EGFR L858R kinase domain (P00533 669-1210 L858R): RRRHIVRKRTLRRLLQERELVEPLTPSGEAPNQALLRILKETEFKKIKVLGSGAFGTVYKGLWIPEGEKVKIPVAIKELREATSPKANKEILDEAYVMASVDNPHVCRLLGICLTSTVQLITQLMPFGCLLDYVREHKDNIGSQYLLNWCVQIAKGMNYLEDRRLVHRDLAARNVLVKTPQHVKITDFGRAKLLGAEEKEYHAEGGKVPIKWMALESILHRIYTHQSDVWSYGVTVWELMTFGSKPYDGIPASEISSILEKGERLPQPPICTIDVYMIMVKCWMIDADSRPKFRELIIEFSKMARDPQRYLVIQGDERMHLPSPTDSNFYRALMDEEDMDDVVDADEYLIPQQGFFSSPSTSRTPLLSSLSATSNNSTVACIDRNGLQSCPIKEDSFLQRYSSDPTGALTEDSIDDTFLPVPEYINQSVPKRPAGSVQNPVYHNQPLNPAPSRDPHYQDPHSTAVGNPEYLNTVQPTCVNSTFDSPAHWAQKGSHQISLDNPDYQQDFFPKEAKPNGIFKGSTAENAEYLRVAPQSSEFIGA
Description: as §1

[1] = biological target: EGFR T790M/L858R kinase domain (Homo sapiens (Human), UniProt P00533, L858R/T790M); experiment: EGFR enzymatic assay, TR-FRET, EGFR T790M/L858R
Chain of EGFR T790M/L858R kinase domain (P00533 669-1210 T790M/L858R): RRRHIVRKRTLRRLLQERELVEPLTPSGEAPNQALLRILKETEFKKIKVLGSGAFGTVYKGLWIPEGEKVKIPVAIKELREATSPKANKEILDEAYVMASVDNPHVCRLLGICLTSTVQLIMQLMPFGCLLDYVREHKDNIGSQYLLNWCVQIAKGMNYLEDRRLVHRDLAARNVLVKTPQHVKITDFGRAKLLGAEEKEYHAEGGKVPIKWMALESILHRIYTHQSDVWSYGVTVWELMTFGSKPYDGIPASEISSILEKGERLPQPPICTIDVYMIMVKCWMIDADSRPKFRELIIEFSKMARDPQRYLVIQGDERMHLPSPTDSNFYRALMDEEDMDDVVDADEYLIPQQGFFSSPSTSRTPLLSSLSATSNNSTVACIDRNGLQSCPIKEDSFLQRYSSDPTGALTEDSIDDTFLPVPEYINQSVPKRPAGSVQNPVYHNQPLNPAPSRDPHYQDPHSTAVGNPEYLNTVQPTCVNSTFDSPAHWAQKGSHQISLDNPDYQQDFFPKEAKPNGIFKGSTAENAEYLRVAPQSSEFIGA
Description: as §1

Chain of B-Raf (V600E) (P15056 whole entry V600E): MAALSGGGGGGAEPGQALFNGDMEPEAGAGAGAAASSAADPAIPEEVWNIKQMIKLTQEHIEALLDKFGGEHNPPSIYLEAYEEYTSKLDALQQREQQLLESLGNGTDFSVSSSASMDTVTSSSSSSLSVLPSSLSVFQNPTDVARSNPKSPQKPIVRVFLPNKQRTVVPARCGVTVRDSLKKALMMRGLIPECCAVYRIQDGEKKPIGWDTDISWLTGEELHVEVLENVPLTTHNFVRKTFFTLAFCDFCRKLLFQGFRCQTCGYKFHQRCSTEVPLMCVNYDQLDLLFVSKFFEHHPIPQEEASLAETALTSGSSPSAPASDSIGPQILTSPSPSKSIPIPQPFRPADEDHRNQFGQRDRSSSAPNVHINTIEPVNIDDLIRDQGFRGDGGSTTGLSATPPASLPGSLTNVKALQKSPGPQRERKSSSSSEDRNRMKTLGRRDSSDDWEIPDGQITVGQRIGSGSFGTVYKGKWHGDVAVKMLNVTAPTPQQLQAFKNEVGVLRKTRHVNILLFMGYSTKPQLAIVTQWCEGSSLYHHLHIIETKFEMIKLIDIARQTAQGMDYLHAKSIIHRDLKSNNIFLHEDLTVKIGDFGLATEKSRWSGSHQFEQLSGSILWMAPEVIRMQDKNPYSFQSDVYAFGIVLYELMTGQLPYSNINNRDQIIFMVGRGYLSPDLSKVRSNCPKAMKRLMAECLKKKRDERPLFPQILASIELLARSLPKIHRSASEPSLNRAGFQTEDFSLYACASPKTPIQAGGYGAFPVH

Row | SMILES | IC50 (B-Raf (V600E)) [nM] | IC50 (WT EGFR kinase domain) [nM] | IC50 (EGFR L858R kinase domain) [nM] | IC50 [1] [nM]
1 | CCN1CCC(=Cc2ccc(C(=O)N[C@@H]3[C@H]4Oc5ccc(Oc6ccnc7c6CCC(=O)N7)cc5[C@@H]34)cc2C(F)(F)F)CC1 [Compound 1.75, 4-((1-ethylpiperidin-4-ylidene)methyl)-N-((1S,1aS,6bS)-5-((7-oxo-5,6,7,8-tetrahydro-1,8-naphthyridin-4-yl)oxy)-1a,6b-dihydro-1H-cyclopropa[b]benzofuran-1-yl)-3-(trifluoromethyl)benzamide] | 21 | 1.3 | 0.26 | 0.18
2 | CCN1CCN(Cc2ccc(C(=O)N[C@@H]3[C@H]4Oc5ccc(Oc6ccnc7c6CNC(=O)N7)cc5[C@@H]34)cc2C(F)(F)F)CC1 [Compound 2.6, 4-((4-ethylpiperazin-1-yl)methyl)-N-((1S,1aS,6bS)-5-((2-oxo-1,2,3,4-tetrahydropyrido[2,3-d]pyrimidin-5-yl)oxy)-1a,6b-dihydro-1H-cyclopropa[b]benzofuran-1-yl)-3-(trifluoromethyl)benzamide] | 17 | 0.43 | 0.085 | 0.076
3 | CCN1CCC(Oc2ccc(C(=O)N[C@@H]3[C@H]4Oc5ccc(Oc6ccnc7c6CCC(=O)N7)cc5[C@@H]34)cc2C(F)(F)F)CC1 [Compound 1.64] | 12 | 1.1 | < 0.25 | 0.46
4 | CN1C(C)(C)CC(Oc2ccc(C(=O)N[C@@H]3[C@H]4Oc5ccc(Oc6ccnc7c6CCC(=O)N7)cc5[C@@H]34)cc2C(F)(F)F)CC1(C)C [Compound 1.77, N-((1S,1aS,6bS)-5-((7-oxo-5,6,7,8-tetrahydro-1,8-naphthyridin-4-yl)oxy)-1a,6b-dihydro-1H-cyclopropa[b]benzofuran-1-yl)-4-((1,2,2,6,6-pentamethylpiperidin-4-yl)oxy)-3-(trifluoromethyl)benzamide] | 13 |  |  | 
5 | C[C@@H]1CN(Cc2ccc(C(=O)N[C@@H]3[C@H]4Oc5ccc(Oc6ccnc7c6CCC(=O)N7)cc5[C@@H]34)cc2C(F)(F)F)CCN1 [Compound 1.30] |  | 0.69 | 0.46 | 2.7
6 | CCCCCCCCCCCC(=O)N[C@@H]1[C@H]2Oc3ccc(Oc4ccnc5c4CCC(=O)N5)cc3[C@@H]12 [Compound 1.28] |  | 809 | 287 | 885

Continued by falling IC50 (B-Raf (V600E)), values first:

Row | IC50 (B-Raf (V600E)) [nM] | IC50 (WT EGFR kinase domain) [nM] | IC50 (EGFR L858R kinase domain) [nM] | IC50 [1] [nM] | SMILES
7 | 10 | 1.2 | 0.79 | 8 | CCN1CCN(Cc2ccc(C(=O)N[C@@H]3[C@H]4Oc5ccc(Oc6ccnc7c6CCC(=O)N7)cc5[C@@H]34)cc2OC(F)(F)F)CC1 [Compound 1.78, 4-((4-ethylpiperazin-1-yl)methyl)-N-((1S,1aS,6bS)-5-((7-oxo-5,6,7,8-tetrahydro-1,8-naphthyridin-4-yl)oxy)-1a,6b-dihydro-1H-cyclopropa[b]benzofuran-1-yl)-3-(trifluoromethoxy)benzamide]
8 | 6.4 | 1.5 | 0.5 | 3.1 | CCN1CCN(Cc2ccc(C(=O)N[C@@H]3[C@H]4Oc5ccc(Oc6ccnc7c6CCC(=O)N7)cc5[C@@H]34)cc2C)CC1 [Compound 1.57, 4-((4-ethylpiperazin-1-yl)methyl)-3-methyl-N-((1S,1aS,6bS)-5-((7-oxo-5,6,7,8-tetrahydro-1,8-naphthyridin-4-yl)oxy)-1a,6b-dihydro-1H-cyclopropa[b]benzofuran-1-yl)benzamide]
9 | 5.7 |  |  |  | CCN1CCN(Cc2ccc(C(=O)N[C@@H]3[C@H]4Oc5ccc(Oc6ccnc7c6CCC(=O)N7)cc5[C@@H]34)cc2Cl)CC1 [Compound 1.18]
10 | 3.6 | 9.3 | 13 | 81 | CN(C)Cc1cc(C(=O)N[C@@H]2[C@H]3Oc4ccc(Oc5ccnc6c5CCC(=O)N6)cc4[C@@H]23)cc(C(F)(F)F)c1 [Compound 1.66]
11 | 2.5 | 1140 | 296 | 234 | O=C1CCc2c(Oc3ccc4c(c3)[C@H]3[C@H](NC(=O)c5cccc(C(F)(F)F)n5)[C@H]3O4)ccnc2N1 [Compound 1.63]
12 | 1.7 |  |  |  | CCN1CCN(Cc2cc(F)cc(C(=O)N[C@@H]3[C@H]4Oc5ccc(Oc6ccnc7c6CCC(=O)N7)cc5[C@@H]34)c2)CC1 [Compound 1.6]
